Assay results: patent US11420973B2, “Amide substituted indole compounds useful as TLR inhibitors” (BRISTOL-MYERS SQUIBB COMPANY, priority 2017, dated 2022)

Key:
human TLR7 = human TLR7 (Homo sapiens (Human), UniProt Q9NYK1); assay: TLR7 inhibition reporter assay (HEK-Blue SEAP reporter, gardiquimod stimulation); type: cell-based; settings: HEK-Blue cells overexpressing human TLR7, gardiquimod 7.5 μM
human TLR9 = human TLR9 (Homo sapiens (Human), UniProt Q9NR96); assay: TLR9 inhibition reporter assay (HEK-Blue SEAP reporter, ODN2006 stimulation); settings: read-out: TLR9 IC50; HEK-Blue cells overexpressing human TLR9, ODN2006 5 nM, SEAP reporter;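 note: SEAP reporter under IFN-β minimal promoter with five NF-κB and AP-1 sites, 22 h incubation, compounds 0.05 nM–50 µM, inhibition relative to agonist plus DMSO versus known inhibitor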
Experimental: HEK-Blue™-cells (Invivogen) overexpressing human TLR7, TLR8 or TLR9 receptors were used for screening inhibitors of these receptors using an inducible SEAP (secreted embryonic alkaline phosphatase) reporter gene under the control of the IFN-β minimal promoter fused to five NF-κB and AP-1-binding sites. Briefly, cells are seeded into Greiner 384 well plates (15000 cells per well for TLR7, 20,000 for TLR8 and 25,000 for TLR9) and then treated with test compounds in DMSO to yield a final dose response concentration range of 0.05 nM-50 μM. After a 30 minute compound pre-treatment at room temperature, the cells are then stimulated with a TLR7 ligand (gardiquimod at a final concentration of 7.5 μM), TLR8 ligand (R848 at a final concentration of 15.9 μM) or TLR9 ligand (ODN2006 at a final concentration of 5 nM) to activate NF-κB and AP-1 which induce the production of SEAP. After a 22 hour incubation at 37° C., 5% CO2, SEAP levels are determined with the addition of HEK-Blue™ Detection reagent (Invivogen), a cell culture medium that allows for detection of SEAP, according to manufacturer's specifications.

human TLR8 = human TLR8 (Homo sapiens (Human), UniProt Q9NR97); assay: TLR8 inhibition reporter assay (HEK-Blue SEAP reporter, R848 stimulation); settings: read-out: TLR8 IC50; HEK-Blue cells overexpressing human TLR8, R848 15.9 μM, SEAP reporter;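 note: SEAP driven by IFN-β minimal promoter with NF-κB and AP-1 sites, 22 h incubation, compounds 0.05 nM–50 µM, inhibition scaled between agonist plus DMSO and reference inhibitor wells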
Chain of human TLR8 (Q9NR97 27-1041): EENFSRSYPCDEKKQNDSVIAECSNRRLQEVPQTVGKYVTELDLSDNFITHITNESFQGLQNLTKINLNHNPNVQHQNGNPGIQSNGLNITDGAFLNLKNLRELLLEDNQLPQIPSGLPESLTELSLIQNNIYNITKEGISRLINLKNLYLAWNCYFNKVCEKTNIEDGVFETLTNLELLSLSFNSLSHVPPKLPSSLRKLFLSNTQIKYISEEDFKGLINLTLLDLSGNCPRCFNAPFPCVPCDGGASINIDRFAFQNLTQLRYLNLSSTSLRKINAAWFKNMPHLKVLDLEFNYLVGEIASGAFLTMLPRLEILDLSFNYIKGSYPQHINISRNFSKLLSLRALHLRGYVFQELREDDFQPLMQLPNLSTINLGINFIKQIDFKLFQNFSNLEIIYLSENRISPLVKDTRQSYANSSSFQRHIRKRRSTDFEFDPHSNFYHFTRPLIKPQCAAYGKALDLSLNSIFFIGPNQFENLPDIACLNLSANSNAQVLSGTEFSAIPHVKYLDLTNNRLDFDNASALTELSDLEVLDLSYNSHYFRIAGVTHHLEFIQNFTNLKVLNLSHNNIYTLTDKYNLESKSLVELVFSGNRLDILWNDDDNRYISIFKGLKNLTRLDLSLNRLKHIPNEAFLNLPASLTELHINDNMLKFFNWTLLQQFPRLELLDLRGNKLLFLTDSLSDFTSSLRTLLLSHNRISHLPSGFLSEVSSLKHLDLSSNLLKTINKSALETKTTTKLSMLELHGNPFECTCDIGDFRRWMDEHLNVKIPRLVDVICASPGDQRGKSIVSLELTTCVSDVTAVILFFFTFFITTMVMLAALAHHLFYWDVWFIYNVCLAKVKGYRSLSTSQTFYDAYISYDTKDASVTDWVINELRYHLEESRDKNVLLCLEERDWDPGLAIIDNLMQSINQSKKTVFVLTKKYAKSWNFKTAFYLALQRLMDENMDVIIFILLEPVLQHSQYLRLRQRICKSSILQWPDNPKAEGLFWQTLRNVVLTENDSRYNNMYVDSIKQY

Chain of human TLR9 (Q9NR96 26-1032): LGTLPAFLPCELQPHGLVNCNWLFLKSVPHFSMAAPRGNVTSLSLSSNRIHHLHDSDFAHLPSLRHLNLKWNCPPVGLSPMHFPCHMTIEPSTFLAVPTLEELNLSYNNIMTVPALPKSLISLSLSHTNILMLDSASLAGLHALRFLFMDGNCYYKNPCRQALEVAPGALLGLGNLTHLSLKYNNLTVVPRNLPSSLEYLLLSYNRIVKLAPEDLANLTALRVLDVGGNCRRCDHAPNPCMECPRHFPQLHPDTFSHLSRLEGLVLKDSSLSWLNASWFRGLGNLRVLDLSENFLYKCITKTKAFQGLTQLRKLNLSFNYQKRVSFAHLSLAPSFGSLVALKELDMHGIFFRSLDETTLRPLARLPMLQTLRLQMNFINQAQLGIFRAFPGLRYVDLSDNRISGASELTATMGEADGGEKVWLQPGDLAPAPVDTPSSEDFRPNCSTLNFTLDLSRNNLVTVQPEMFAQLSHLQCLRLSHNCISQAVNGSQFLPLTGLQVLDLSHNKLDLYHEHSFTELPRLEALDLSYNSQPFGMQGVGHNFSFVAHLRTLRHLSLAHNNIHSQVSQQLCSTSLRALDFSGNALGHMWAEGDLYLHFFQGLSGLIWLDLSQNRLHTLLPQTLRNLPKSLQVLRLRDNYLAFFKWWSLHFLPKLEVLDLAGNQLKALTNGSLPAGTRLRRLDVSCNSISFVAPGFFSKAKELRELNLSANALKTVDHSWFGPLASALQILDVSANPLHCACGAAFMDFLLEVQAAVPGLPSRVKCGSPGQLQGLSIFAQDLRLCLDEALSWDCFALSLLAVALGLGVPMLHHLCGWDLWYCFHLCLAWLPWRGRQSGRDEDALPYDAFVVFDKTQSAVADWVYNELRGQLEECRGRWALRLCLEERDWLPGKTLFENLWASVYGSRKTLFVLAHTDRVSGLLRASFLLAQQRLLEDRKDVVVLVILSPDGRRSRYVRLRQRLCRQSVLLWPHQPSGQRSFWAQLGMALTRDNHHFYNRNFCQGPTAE
Chain of human TLR7 (Q9NYK1 27-1049): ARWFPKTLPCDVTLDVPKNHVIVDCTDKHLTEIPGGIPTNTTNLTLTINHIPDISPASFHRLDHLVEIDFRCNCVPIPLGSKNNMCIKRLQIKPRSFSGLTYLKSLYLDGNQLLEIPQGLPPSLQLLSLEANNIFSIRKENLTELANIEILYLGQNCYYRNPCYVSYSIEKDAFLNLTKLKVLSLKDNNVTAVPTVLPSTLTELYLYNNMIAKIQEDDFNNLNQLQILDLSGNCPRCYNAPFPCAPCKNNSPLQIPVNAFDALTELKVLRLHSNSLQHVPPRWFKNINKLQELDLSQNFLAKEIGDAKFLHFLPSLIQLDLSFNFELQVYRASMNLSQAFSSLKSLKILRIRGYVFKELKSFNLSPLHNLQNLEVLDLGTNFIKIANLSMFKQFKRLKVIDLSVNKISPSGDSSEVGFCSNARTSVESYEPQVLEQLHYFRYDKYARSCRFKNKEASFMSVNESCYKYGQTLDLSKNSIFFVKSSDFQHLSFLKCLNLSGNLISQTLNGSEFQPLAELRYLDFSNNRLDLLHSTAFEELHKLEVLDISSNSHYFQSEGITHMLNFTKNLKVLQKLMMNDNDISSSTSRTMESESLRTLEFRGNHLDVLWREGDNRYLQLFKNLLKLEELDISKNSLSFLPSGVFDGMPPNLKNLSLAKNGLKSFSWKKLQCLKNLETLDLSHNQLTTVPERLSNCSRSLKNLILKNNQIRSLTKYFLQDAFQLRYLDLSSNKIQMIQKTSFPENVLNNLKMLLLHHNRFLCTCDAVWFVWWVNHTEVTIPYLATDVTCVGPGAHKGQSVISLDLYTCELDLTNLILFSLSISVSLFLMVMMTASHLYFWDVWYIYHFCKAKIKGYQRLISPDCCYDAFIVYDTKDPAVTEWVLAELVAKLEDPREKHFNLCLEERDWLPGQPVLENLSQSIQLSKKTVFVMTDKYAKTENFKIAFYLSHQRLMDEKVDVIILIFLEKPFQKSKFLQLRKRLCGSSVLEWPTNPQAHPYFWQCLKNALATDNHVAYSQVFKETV

Cc1cc(-c2[nH]c3ccc(C(C)C(=O)N4CCCC(CCN)C4)cc3c2C(C)C)ccn1 (stereo not drawn) [Example 206, 1-(3-(2-aminoethyl)piperidin-1-yl)-2-(3-isopropyl-2-(2-methylpyridin-4-yl)-1H-indol-5-yl)propan-1-one]
IC50 (human TLR7): 517 nM | IC50 (human TLR9): 686 nM | IC50 (human TLR8): 126 nM

Cc1cc(-c2[nH]c3ccc(C(C)C(=O)N(C)C4CCNCC4)cc3c2C(C)C)ccn1 (stereo not drawn) [Example 207, 2-(3-isopropyl-2-(2-methylpyridin-4-yl)-1H-indol-5-yl)-N-methyl-N-(piperidin-4-yl)propanamide]
IC50 (human TLR7): 172 nM | IC50 (human TLR9): 396 nM | IC50 (human TLR8): 156 nM

Cc1cc(-c2[nH]c3ccc(C(C)C(=O)NC[C@@H]4CCNC4)cc3c2C(C)C)ccn1 (stereo partly drawn) [Example 208, 2-(3-isopropyl-2-(2-methylpyridin-4-yl)-1H-indol-5-yl)-N—(((R)-pyrrolidin-3-yl)methyl)propanamide]
IC50 (human TLR7): 1290 nM | IC50 (human TLR9): 7310 nM | IC50 (human TLR8): 2570 nM

Cc1cc(-c2[nH]c3ccc(C(C)C(=O)N(C)C4CCCNC4)cc3c2C(C)C)ccn1 (stereo not drawn) [Example 209, 2-(3-isopropyl-2-(2-methylpyridin-4-yl)-1H-indol-5-yl)-N-methyl-N-(piperidin-3-yl)propanamide]
IC50 (human TLR7): 103 nM | IC50 (human TLR9): 685 nM | IC50 (human TLR8): 96 nM

Cc1cc(-c2[nH]c3ccc(C(C)C(=O)N(C)C4CCCNC4)cc3c2C(C)C)ccn1 (stereo not drawn) [Example 210, 2-(3-isopropyl-2-(2-methylpyridin-4-yl)-1H-indol-5-yl)-N-methyl-N-(piperidin-3-yl)propanamide]
IC50 (human TLR7): 280 nM | IC50 (human TLR9): 718 nM | IC50 (human TLR8): 210 nM

Cc1cc(-c2[nH]c3ccc(C(C)C(=O)N(C)C4CN5CCC4CC5)cc3c2C(C)C)ccn1 (stereo not drawn) [Example 211, 2-(3-isopropyl-2-(2-methylpyridin-4-yl)-1H-indol-5-yl)-N-methyl-N-(quinuclidin-3-yl)propanamide]
IC50 (human TLR7): 50 nM | IC50 (human TLR9): 472 nM | IC50 (human TLR8): 51 nM

Cc1cc(-c2[nH]c3ccc(C(C)C(=O)NC[C@H]4CCNC4)cc3c2C(C)C)ccn1 (stereo partly drawn) [Example 212, 2-(3-isopropyl-2-(2-methylpyridin-4-yl)-1H-indol-5-yl)-N—(((S)-pyrrolidin-3-yl)methyl)propanamide]
IC50 (human TLR7): 821 nM | IC50 (human TLR9): 5000 nM | IC50 (human TLR8): 1470 nM

Cc1cc(-c2[nH]c3ccc(C(C)C(=O)NCC4CCCNC4)cc3c2C(C)C)ccn1 (stereo not drawn) [Example 213, 2-(3-isopropyl-2-(2-methylpyridin-4-yl)-1H-indol-5-yl)-N-(piperidin-3-ylmethyl)propanamide]
IC50 (human TLR7): 466 nM | IC50 (human TLR9): 2640 nM | IC50 (human TLR8): 241 nM

Cc1cc(-c2[nH]c3ccc(C(C)C(=O)NC4C[C@H]5CC[C@@H](C4)N5C)cc3c2C(C)C)ccn1 (stereo partly drawn) [Example 214, 2-(3-isopropyl-2-(2-methylpyridin-4-yl)-1H-indol-5-yl)-N-((1R,5S)-8-methyl-8-azabicyclo[3.2.1]octan-3-yl)propanamide]
IC50 (human TLR7): 107 nM | IC50 (human TLR9): 4670 nM | IC50 (human TLR8): 167 nM

Cc1cc(-c2[nH]c3ccc(C(C)C(=O)N[C@@H]4CCCC[C@H]4N)cc3c2C(C)C)ccn1 (stereo partly drawn) [Example 215, N-((1R,2R)-2-aminocyclohexyl)-2-(3-isopropyl-2-(2-methylpyridin-4-yl)-1H-indol-5-yl)propanamide]
IC50 (human TLR7): 148 nM | IC50 (human TLR9): 1370 nM | IC50 (human TLR8): 174 nM

Cc1cc(-c2[nH]c3ccc(C(C)C(=O)N[C@@H]4CCCC[C@H]4N)cc3c2C(C)C)ccn1 (stereo partly drawn) [Example 216, N-((1R,2R)-2-aminocyclohexyl)-2-(3-isopropyl-2-(2-methylpyridin-4-yl)-1H-indol-5-yl)propanamide]
IC50 (human TLR7): 131 nM | IC50 (human TLR9): 1060 nM | IC50 (human TLR8): 159 nM

Cc1cc(-c2[nH]c3ccc(C(C)C(=O)NC4CCC(N)CC4)cc3c2C(C)C)ccn1 (stereo not drawn) [Example 217, N-(4-aminocyclohexyl)-2-(3-isopropyl-2-(2-methylpyridin-4-yl)-1H-indol-5-yl)propanamide]
IC50 (human TLR7): 167 nM | IC50 (human TLR9): 999 nM | IC50 (human TLR8): 316 nM

Cc1cc(-c2[nH]c3ccc(C(C)C(=O)NC4CCCC(N)C4)cc3c2C(C)C)ccn1 (stereo not drawn) [Example 218, N-(3-aminocyclohexyl)-2-(3-isopropyl-2-(2-methylpyridin-4-yl)-1H-indol-5-yl)propanamide]
IC50 (human TLR7): 803 nM | IC50 (human TLR9): 1400 nM | IC50 (human TLR8): 1080 nM

Cc1cc(-c2[nH]c3ccc(C(C)C(=O)NC4CCCC(N)C4)cc3c2C(C)C)ccn1 (stereo not drawn) [Example 219, N-(3-aminocyclohexyl)-2-(3-isopropyl-2-(2-methylpyridin-4-yl)-1H-indol-5-yl)propanamide]
IC50 (human TLR7): 256 nM | IC50 (human TLR9): 1750 nM | IC50 (human TLR8): 182 nM

Cc1c(-c2[nH]c3ccc(C(=O)N(C)CCN(C)C)cc3c2C(C)C)cn(C)c(=O)c1Cl [Example 222, 2-(5-chloro-1,4-dimethyl-6-oxo-1,6-dihydropyridin-3-yl)-N-(2-(dimethylamino)ethyl)-3-isopropyl-N-methyl-1H-indole-5-carboxamide]
IC50 (human TLR7): 22 nM | IC50 (human TLR9): 6920 nM | IC50 (human TLR8): 10 nM
